According to PubChem BioAssay AID330 (DTP/NCI, 2004):
Values joined by “and” are separate entries in the source; they are usually repeats but may differ in a detail not shown here. Equal values may be shown once. Inconclusive results and toxic doses are left out.

Test system: P388 leukemia ip, CD2F1 mice, survival T/C
Test: NCI In Vivo Anticancer Drug Screen. Data for tumor model P388 Leukemia (intraperitoneal) in CD2F1 (CDF1) mice
Settings: endpoint: median survival time, higher = longer survival
In short: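 Mice carrying the transplanted tumor received test compound or vehicle. Survival was recorded in each group, and the value is the treated-group measurement divided by that of the vehicle-treated control group.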

[1] = dose: 60.0 mg/kg/injection, schedule: Q01DX005 (ip), vehicle: Klucel (hydroxypropylcellulose) (HPC)
[2] = dose: 120.0 mg/kg/injection, schedule: Q01DX005 (ip), vehicle: Klucel (hydroxypropylcellulose) (HPC)
[3] = dose: 240.0 mg/kg/injection, schedule: Q01DX005 (ip), vehicle: Klucel (hydroxypropylcellulose) (HPC)
[4] = dose: 50.0 mg/kg/injection, schedule: Q01DX005 (ip), vehicle: saline with Tween-80
[5] = dose: 100.0 mg/kg/injection, schedule: Q01DX005 (ip), vehicle: saline with Tween-80
[6] = dose: 200.0 mg/kg/injection, schedule: Q01DX005 (ip), vehicle: saline with Tween-80
[7] = dose: 60.0 mg/kg/injection, schedule: Q01DX005 (ip), vehicle: saline
[8] = dose: 60.0 mg/kg/injection, schedule: Q01DX005 (ip), vehicle: saline with Tween-80
[9] = dose: 120.0 mg/kg/injection, schedule: Q01DX005 (ip), vehicle: saline with Tween-80
[10] = dose: 240.0 mg/kg/injection, schedule: Q01DX005 (ip), vehicle: saline with Tween-80
[11] = dose: 100.0 mg/kg/injection, schedule: Q01DX009 (ip), vehicle: Klucel (hydroxypropylcellulose) (HPC)
[12] = dose: 200.0 mg/kg/injection, schedule: Q01DX009 (ip), vehicle: Klucel (hydroxypropylcellulose) (HPC)
[13] = dose: 400.0 mg/kg/injection, schedule: Q01DX009 (ip), vehicle: Klucel (hydroxypropylcellulose) (HPC)
[14] = dose: 50.0 mg/kg/injection, schedule: Q01DX009 (ip), vehicle: Klucel (hydroxypropylcellulose) (HPC)
[15] = dose: 25.0 mg/kg/injection, schedule: Q01DX005 (ip), vehicle: water
[16] = dose: 50.0 mg/kg/injection, schedule: Q01DX005 (ip), vehicle: water
[17] = dose: 100.0 mg/kg/injection, schedule: Q01DX005 (ip), vehicle: water
[18] = dose: 200.0 mg/kg/injection, schedule: Q01DX005 (ip), vehicle: water
[19] = dose: 25.0 mg/kg/injection, schedule: Q01DX009 (ip), vehicle: saline with Tween-80
[20] = dose: 50.0 mg/kg/injection, schedule: Q01DX009 (ip), vehicle: saline with Tween-80
[21] = dose: 100.0 mg/kg/injection, schedule: Q01DX009 (ip), vehicle: saline with Tween-80

SMILES: CC1=C2C(=C[C@@](C)(CO)[C@@H]2O)C(=O)[C@](C)(O)C12CC2
- T/C (dose: 0.05 mg/kg/injection, schedule: Q01DX010 (ip), vehicle: saline): 109 % of control
- T/C (dose: 0.1 mg/kg/injection, schedule: Q01DX010 (ip), vehicle: saline): 118 % of control
- T/C (dose: 0.8 mg/kg/injection, schedule: Q01DX010 (ip), vehicle: saline): 95 % of control

SMILES: COC1=C(OC)C(=O)C(N2CCCCC2)=C(CO)C1=O
- T/C (dose: 60.0 mg/kg/injection, schedule: Q01DX005 (ip), vehicle: saline + Tween-80 + alcohol): 88 % of control
- T/C (dose: 120.0 mg/kg/injection, schedule: Q01DX005 (ip), vehicle: saline + Tween-80 + alcohol): 94 % of control
- T/C (dose: 240.0 mg/kg/injection, schedule: Q01DX005 (ip), vehicle: saline + Tween-80 + alcohol): 107 % of control

SMILES: Cc1ccc(S(=O)(=O)C2C(C)(C)C2(Sc2ccccc2)[Si](C)(C)C)cc1 (centres undefined)
- T/C [1]: 102 % of control
- T/C [2]: 106 % of control
- T/C [3]: 92 % of control

SMILES: COC(=O)C(OC)C(O)C(OC)OC (centres undefined)
- T/C [4]: 100 % of control
- T/C [5]: 101 % of control
- T/C [6]: 104 % of control

SMILES: CCCCCC[N+]1([O-])CC[N+]([O-])(CCCCCC)CC1 (centres undefined)
- T/C (dose: 15.0 mg/kg/injection, schedule: Q01DX005 (ip), vehicle: saline): 101 % of control
- T/C (dose: 30.0 mg/kg/injection, schedule: Q01DX005 (ip), vehicle: saline): 102 % of control
- T/C [7]: 102 % of control and 103 % of control

SMILES: COc1cccc(/C=C/S(=O)(=O)Cc2ccccc2)c1OC
- T/C [4]: 93 % of control
- T/C [5]: 100 % of control
- T/C [6]: 91 % of control

SMILES: O=C(Cc1nc2ccccc2[nH]c1=O)c1cccnc1
- T/C [8]: 99 % of control
- T/C [9]: 94 % of control
- T/C [10]: 98 % of control

SMILES: CCCCCCCCC(=O)OCCNC(=O)C(C)OC(=O)CCCCCCCC (centres undefined)
- T/C [11]: 96 % of control
- T/C [12]: 100 % of control
- T/C [13]: 98 % of control

SMILES: NNC(=O)Cc1cccc2ccc(Cl)cc12
- T/C [1]: 92 % of control
- T/C [2]: 88 % of control

SMILES: COC(=O)/C=C/c1cc(=O)nc2sc3ccccc3n12
- T/C [1]: 93 % of control
- T/C [2]: 93 % of control
- T/C [3]: 94 % of control

SMILES: CN(C)/N=C/c1c[nH]c2ccccc12
- T/C (dose: 6.25 mg/kg/injection, schedule: Q01DX009 (ip), vehicle: Klucel (hydroxypropylcellulose) (HPC)): 105 % of control
- T/C (dose: 12.5 mg/kg/injection, schedule: Q01DX009 (ip), vehicle: Klucel (hydroxypropylcellulose) (HPC)): 103 % of control
- T/C (dose: 25.0 mg/kg/injection, schedule: Q01DX009 (ip), vehicle: Klucel (hydroxypropylcellulose) (HPC)): 100 % of control
- T/C [14]: 118 % of control
- T/C [11]: 111 % of control

SMILES: COC(=O)Nc1nc2cc(OC)c(OC)cc2c(=O)[nH]1
- T/C (dose: 25.0 mg/kg/injection, schedule: Q01DX005 (ip), vehicle: saline with Tween-80): 111 % of control
- T/C [4]: 107 % of control

SMILES: O/N=C/C1CCCC[N-]1.[Co+3].[O-]/N=C/C1CCCC[N-]1.[O-]/N=C/C1CCCC[N-]1.[O-][Cl+3]([O-])([O-])O (centres undefined)
- T/C [8]: 97 % of control
- T/C [9]: 103 % of control
- T/C [10]: 104 % of control

SMILES: c1coc(-c2cc(-c3cc(-c4ccco4)on3)no2)c1
- T/C [1]: 105 % of control
- T/C [2]: 100 % of control
- T/C [3]: 107 % of control

SMILES: COC(=O)/C=C/c1cccc[n+]1[O-]
- T/C [15]: 107 % of control
- T/C [16]: 107 % of control
- T/C [17]: 109 % of control
- T/C [18]: 107 % of control

SMILES: Nc1ccccc1SCc1ccccc1
- T/C [19]: 103 % of control
- T/C [20]: 100 % of control
- T/C [21]: 102 % of control
- T/C (dose: 200.0 mg/kg/injection, schedule: Q01DX009 (ip), vehicle: saline with Tween-80): 108 % of control

SMILES: Oc1ccc2c(c1O)/C(=C/C=NCC1(O)OCC(O)C(O)C1O)C=N2 (centres undefined)
- T/C [7]: 101 % of control
- T/C (dose: 120.0 mg/kg/injection, schedule: Q01DX005 (ip), vehicle: saline): 98 % of control
- T/C (dose: 240.0 mg/kg/injection, schedule: Q01DX005 (ip), vehicle: saline): 101 % of control

SMILES: N#[O+].O.O=N[O-].O=N[O-].O=N[O-].O=N[O-].[Ru]
- T/C (dose: 3.13 mg/kg/injection, schedule: Q04DX003 (ip), vehicle: water): 113 % of control
- T/C (dose: 6.25 mg/kg/injection, schedule: Q04DX003 (ip), vehicle: water): 106 % of control and 118 % of control

SMILES: O=C1OC2(CCCCC2)Cc2oc3ccccc3c(=O)c21
- T/C (dose: 25.0 mg/kg/injection, schedule: Q01DX005 (ip), vehicle: Klucel (hydroxypropylcellulose) (HPC)): 98 % of control
- T/C (dose: 50.0 mg/kg/injection, schedule: Q01DX005 (ip), vehicle: Klucel (hydroxypropylcellulose) (HPC)): 100 % of control
- T/C (dose: 100.0 mg/kg/injection, schedule: Q01DX005 (ip), vehicle: Klucel (hydroxypropylcellulose) (HPC)): 90 % of control

SMILES: Cc1c2c(cc3c4ccccc4n(C)c13)C(=O)NC2=O
- T/C [4]: 91 % of control
- T/C [5]: 90 % of control

SMILES: COC(=O)C1O[C@H]1c1cccc[n+]1[O-] (mixture of isomers)
- T/C [15]: 102 % of control
- T/C [16]: 101 % of control
- T/C [17]: 101 % of control
- T/C [18]: 103 % of control

SMILES: CCSC(=O)c1ccc(S(=O)(=O)CC)cc1
- T/C [14]: 102 % of control
- T/C [11]: 98 % of control
- T/C [12]: 106 % of control
- T/C [13]: 107 % of control

SMILES: CCCCCCCCCCCCC1=C(OC)C(NC(=O)CCCCCCCCCCC)=CC(=O)C1=O
- T/C (dose: 50.0 mg/kg/injection, schedule: Q01DX001 (ip), vehicle: Klucel (hydroxypropylcellulose) (HPC)): 92 % of control
- T/C (dose: 100.0 mg/kg/injection, schedule: Q01DX001 (ip), vehicle: Klucel (hydroxypropylcellulose) (HPC)): 88 % of control
- T/C (dose: 200.0 mg/kg/injection, schedule: Q01DX001 (ip), vehicle: Klucel (hydroxypropylcellulose) (HPC)): 90 % of control

SMILES: CC1=C(S(=O)(=O)c2ccccc2)C(c2ccccc2)N(C)O1 (centres undefined)
- T/C [1]: 102 % of control
- T/C [2]: 103 % of control
- T/C [3]: 98 % of control

SMILES: COC(=O)/C(=C\Sc1ccccc1)NC(C)=O
- T/C [1]: 100 % of control
- T/C [2]: 98 % of control
- T/C [3]: 107 % of control

SMILES: C[N+](C)(C)CCOC(=O)CCC(=O)OCC[N+](C)(C)C
- T/C (dose: 312.0 micrograms/kg/injection, schedule: Q01DX009 (ip), vehicle: saline): 104 % of control
- T/C (dose: 625.0 micrograms/kg/injection, schedule: Q01DX009 (ip), vehicle: saline): 90 % of control
- T/C (dose: 1250.0 micrograms/kg/injection, schedule: Q01DX009 (ip), vehicle: saline): 109 % of control

SMILES: CCOC(=O)CCN1CC=CCC1
- T/C (dose: 50.0 mg/kg/injection, schedule: Q01DX005 (ip), vehicle: saline): 105 % of control
- T/C (dose: 100.0 mg/kg/injection, schedule: Q01DX005 (ip), vehicle: saline): 102 % of control
- T/C (dose: 200.0 mg/kg/injection, schedule: Q01DX005 (ip), vehicle: saline): 102 % of control

SMILES: O=C(O)CSc1cc2c3ccccc3sc2c2ccccc12
- T/C (dose: 40.0 mg/kg/injection, schedule: Q01DX005 (ip), vehicle: Klucel (hydroxypropylcellulose) (HPC)): 100 % of control
- T/C (dose: 80.0 mg/kg/injection, schedule: Q01DX005 (ip), vehicle: Klucel (hydroxypropylcellulose) (HPC)): 107 % of control
- T/C (dose: 160.0 mg/kg/injection, schedule: Q01DX005 (ip), vehicle: Klucel (hydroxypropylcellulose) (HPC)): 106 % of control

SMILES: CCCC(Nc1nncs1)Nc1nncs1
- T/C [4]: 101 % of control
- T/C [5]: 112 % of control and 94 % of control
- T/C [6]: 108 % of control
- T/C (dose: 400.0 mg/kg/injection, schedule: Q01DX005 (ip), vehicle: saline with Tween-80): 157 % of control

SMILES: CSCc1ccc(Cl)cc1N (tested in a mixture with another compound)
- T/C [19]: 103 % of control
- T/C [20]: 106 % of control
- T/C [21]: 106 % of control

SMILES: CCCCCCC(/C=C/c1ccccc1Cl)=N\O
- T/C [14]: 92 % of control
- T/C [11]: 100 % of control
- T/C [12]: 105 % of control

SMILES: CCOC(=S)c1cc(C(=S)OCC)cc(C(C)(C)C)c1
- T/C (dose: 100.0 mg/kg/injection, schedule: Q04DX003 (ip), vehicle: saline with Tween-80): 103 % of control
- T/C (dose: 200.0 mg/kg/injection, schedule: Q04DX003 (ip), vehicle: saline with Tween-80): 108 % of control
- T/C (dose: 400.0 mg/kg/injection, schedule: Q04DX003 (ip), vehicle: saline with Tween-80): 113 % of control
